# Tests used:
# TNF [1] = details: in vitro and in vivo; Solorzano et al. (1997); cited from earlier work
# THP-1 cells [2] = assay: Induction of TRRE by PMA stimulation, TRRE assay of supernatant; assay type: cell-based, human
# Experimental: THP-1 cells growing in logarithmic phase were collected and resuspended to 1×10^6 cells/ml of RPMI-1640 supplemented with 1% FCS and incubated with 10^−6 M PMA for 30 min in 5% CO2 at 37° C. The cells were collected and washed once with serum-free medium to remove PMA and resuspended in the same volume of RPMI-1640 with 1% FCS. After 2 hours incubation in 5% CO2 at 37° C., the cell suspension was collected, centrifuged, and the cell-free supernatant was collected as the TRRE-containing sample.
# Briefly, C75R and COS-1 cells were seeded at 2.5×10^5 cells/ml/well in a 24-well culture plate and incubated in 5% CO2 at 37° C. for 12 to 16 hours. […] Simultaneously, C75R was incubated with 300 μl of fresh medium or buffer. At the end of the incubation period, the samples from each well were collected and the levels of soluble p75 TNF-R were measured by ELISA.
# (§1) C75R cells and COS-1 cells were seeded into 24-well culture plates at a density of 2.5×10^5 cells/ml/well and incubated overnight (for 12 to 16 hours) in 5% CO2 at 37° C. […] (corresponding to A and C mentioned below, respectively). Simultaneously, C75R cells in 24-well plates were also incubated with 300 μl of fresh medium or buffer (corresponding to B mentioned below). The supernatants were collected, centrifuged, and then assayed for the concentration of soluble p75 TNF-R by ELISA as described above.
# (§2) The stimulated cells were washed with serum-free medium and resuspended in the same volume of PMA-free medium with 1% FCS for 2 more hours in 5% CO2 at 37° C.
# (§3) Suspension cell lines including THP-1, U-937, HL-60, Raji and K-562 at a density of 1×10^6 cells/ml were stimulated in RPMI-1640/1% FCS-with 10^−6 M PMA for 30 min in 5% CO2 at 37° C. After pelleting the cells and discarding the supernatants, the cells were washed once with serum-free medium and then incubated for 2 more hours at the same density of 1×10^6 cells/ml in PMA-free RPMI-1640/1% FCS. Adherent cell lines including ME-180 and MRC-5 were seeded in 100 mm cell culture plates with RPMI-1640/10% FCS-at a density of 6×10^6 cells/10 ml/plate in 5% CO2 at 37° C. overnight. After discarding the medium from the 100 mm plates, these adherent cells were stimulated in 6 ml of RPMI-1640/1% FCS with 10^−6 M PMA (at an approximate density of 1×10^6 cells/ml) for 30 min in 5% CO2 at 37° C. Following washing of the plates with serum-free medium 3 times, the cells were incubated for 2 more hours in 6 ml of PMA-free RPMI-1640/1% FCS.
# THP-1 cells were stimulated with 10−6 M PMA in RPMI-1640 with 1% FCS for 30 min.
# THP-1 cells at a density of 1×10^6 cells/ml were stimulated in 1% FCS-contained RPMI-1640 with 10^−6 M PMA for 30 min at 37° C. in 5% CO2. After washing the cells with serum-free medium to remove PMA, the cells were incubated in the same volume of 1% FCS-contained RPMI-1640 without PMA for 2 hours at 37° C. in 5% CO2. Then the cells were centrifuged down and the supernatant was collected for TRRE assay. These pelleted cells were again resuspended in 1% FCS-contained RPMI-1640 with or without 10^−6 M PMA and incubated for 30 min at 37° C. in 5% CO2. After washing the cells with serum-free medium to remove PMA, the cells, stimulated or non-stimulated by PMA, were incubated in the same volume of 1% FCS-contained RPMI-1640 without PMA for 2 and 4 hours each at 37° C. in 5% CO2.
# ME-180 = assay: as above; assay type: cell-based, human; details: ME-180, 10^−6 M PMA
# Text: (§4) THP-1 (a human monocytic leukemia cell line), U-937 (a human histiocytic lymphoma cell line), HL-60 (a human promyelocytic leukemia cell line), Raji (a human Burkitt lymphoma cell line) and K-562 (a human myelogenous leukemia cell line), which grow in suspension, and ME-180 (a human epidermoid carcinoma cell line) and MRC-5 (a human lung fibroblast cell line), which grow adherently, were purchased from American Type Culture Collection (Rockville, Md.). These cell lines were passed twice a week in RPMI-1640/10% heat-inactivated FCS.
# as §3
# MRC-5 = assay: as above; assay type: cell-based, human; details: MRC-5, 10^−6 M PMA
# Text: as §4, §3
# U-937 = assay: as above; assay type: cell-based, human; details: U-937, 10^−6 M PMA
# Text: as §4, §3
# Raji = assay: as above; assay type: cell-based, human; details: 10^−6 M PMA
# Text: as §4, §3
# HL-60 = assay: as above; assay type: cell-based, human; details: HL-60, 10^−6 M PMA
# Text: as §4, §3
# K-562 = assay: as above; assay type: cell-based, human; details: K-562, 10^−6 M PMA
# Text: as §4, §3
# THP-1 cells [3] = assay: as above; assay type: cell-based, human; details: for TRRE Activity (U/ml): THP-1, 10^−6 M PMA 30 min
# [4] = system: human peripheral blood monocytes; assay: as above; assay type: cell-based; details: for TRRE Activity (U): Human Monocyte
# Experimental: as §1
# Mononuclear cells were harvested at the interface of an isotonic Ficoll cushion (specific gravity, 1.05) from a Leukopac obtained from normal healthy volunteers according to the manufacturer's instructions (Sigma). Then monocytes were isolated by counterflow centrifugal elutriation with a Beckman JE-5.0 system. On average, the purity of the monocyte fraction was over 95%, as judged by morphologic examination and nonspecific esterase staining, and viability was over 98% as assessed by the trypan blue dye exclusion test.
# as §2
# TNF [5] = details: Shohami et al. (1997); cited from earlier work
# [6] = Bauditz et al. (1997); cited from earlier work
# [7] = system: soluble p75 and p55 TNF-R; details: Crowe et al. (1995); Mullberg et al. (1995); cited from earlier work
molecule,measurement,setting,value
CNC(=O)[C@H](Cc1c[nH]c2ccccc12)NC(=O)[C@@H](CC(=O)NO)CC(C)C [GM-6001],release of TNF,TNF [1],prevents the release of TNF
"CCCCCCCCCCCCCC(=O)O[C@@H]1[C@@H](C)[C@@]2(O)[C@@H](C=C(CO)C[C@]3(O)C(=O)C(C)=C[C@@H]23)[C@@H]2C(C)(C)[C@]12OC(C)=O [PMA, phorbol 12-myristate 13-acetate]",TRRE produced (FIG. 10A),"THP-1 cells [2]; PMA-stimulated THP-1, 1% FCS","2,096 U/ml"
same,TRRE (U/ml/10^6 cells),"THP-1 cells [2]; THP-1, 10^−6 M PMA","2,884 U/ml/10^6 cells"
same,TRRE release,"THP-1 cells [2]; THP-1, 10^−6 M PMA 30 min, then 2 hours PMA-free","1,304 U/ml"
same,TRRE Activity (U/ml),"THP-1 cells [2]; THP-1, 10^−6 M PMA 30 min, then 2 hours PMA-free with 1% FCS","1,356 U/ml"
same,TRRE Activity (U),"THP-1 cells [2]; THP-1, PMA 10^−6 M","1,304 U"
same,TRRE released,"THP-1 cells [2]; THP-1, after first PMA stimulation, no second PMA, 2 hours and 4 hours",no TRRE activity
same,TRRE released,"THP-1 cells [2]; THP-1, first stimulation of PMA",951 U/ml
same,TRRE released,"THP-1 cells [2]; THP-1, second PMA stimulation 30 min, additional 2 hours PMA-free","1,245 U/ml"
same,TRRE released,"THP-1 cells [2]; THP-1, second PMA stimulation 30 min, additional 4 hours PMA-free","1,044 U/ml"
same,TRRE (U/ml/10^6 cells),ME-180,"1,694 U/ml/10^6 cells"
same,TRRE (U/ml/10^6 cells),MRC-5,"1,477 U/ml/10^6 cells"
same,TRRE (U/ml/10^6 cells),U-937,"3,288 U/ml/10^6 cells"
same,TRRE (U/ml/10^6 cells),Raji,"2,390 U/ml/10^6 cells"
same,TRRE (U/ml/10^6 cells),HL-60,"3,144 U/ml/10^6 cells"
same,TRRE (U/ml/10^6 cells),K-562,"3,356 U/ml/10^6 cells"
same,TRRE produced (FIG. 10A),"THP-1 cells [3]; PMA-stimulated THP-1, 0% FCS",217 U/ml
same,TRRE Activity (U/ml),THP-1 cells [3]; then 2 hours PMA-free with 0% FCS,224 U/ml
same,TRRE Activity (U/ml),THP-1 cells [3]; then 2 hours PMA-free with 10% FCS,"2,275 U/ml"
same,TRRE induction,"THP-1 cells [3]; THP-1, 10^−8 M PMA",did not induce any TRRE
same,TRRE Activity (U),"THP-1 cells [3]; THP-1, PMA 10^−7 M",368 U
same,TRRE Activity (U),[4]; PMA 10^−6 M,883 U
same,TRRE Activity (U),[4]; PMA 10^−7 M,51 U
same,TRRE release,"[4]; human monocytes, 10^−6 M PMA 30 min, then 2 hours PMA-free",883 U/ml
same,TRRE induction,"[4]; monocytes, 10^−8 M PMA",did not induce any TRRE
CCCCCCC(C)(C)c1cc(O)c2c(c1)OC(C)(C)[C@H]1CC=C(CO)C[C@H]21 [dexanabinol],protection against TNF following traumatic brain injury,TNF [5],provided protection
CC(=O)CCCCn1c(=O)c2c(ncn2C)n(C)c1=O [oxpentifylline],course of Crohn's disease,[6],did not alter the course
TAPI,shedding of soluble p75 and p55 TNF-R,[7],blocks the shedding

# From patent US6858402B2 (The Regents of the University of California, priority 1996, dated 2005)
